Patent publication US20240009263A1, “COMPOUNDS FOR TREATING ENVELOPED VIRUS INFECTIONS” (priority 2020, published 2024)
Where two headings read alike, the source gives them in different places. Non-standard residues stand in square brackets, D forms with d. Residues, ends and D or L forms follow the SMILES beside them. *: point of attachment. Nva = CCC[C@H](N)C(=O)O; Cbz = O=C(OCc1ccccc1)*

Experiments:
in vitro [1] = conditions: human
[2] = tested on: SARS-CoV-2 strain BavPat1; test: SARS-CoV-2 replication inhibition in Caco-2 cells (viral RNA RT-qPCR); conditions: for SI = CC50/EC50: Caco-2 cells; for EC50 / EC90: Severe acute respiratory syndrome coronavirus 2, Caco-2, 48 h
[3] = tested on: SARS-CoV-2 strain BavPat1; test: microbe, parasite or virus in culture; conditions: Severe acute respiratory syndrome coronavirus 2, Vero C1008, 48 h
[4] = tested on: SARS-CoV-2 strain BavPat1; conditions: Vero-E6 cells
in vitro [5] = conditions: African green monkey
[6] = tested on: SARS-CoV-2 strain BavPat1; test: microbe, parasite or virus in culture; type: cell-based; conditions: Severe acute respiratory syndrome coronavirus 2; VeroE6-TMPRSS2+ cells, pilot study
[7] = Cytotoxicity in VeroE6 cells (CellTiter Blue); conditions: African green monkey

Structure (SMILES)	CC50 at 2 days (in vitro [1]) [nM]	SI = CC50/EC50 [2]	EC50 [2] [nM]	EC90 [2] [nM]	EC50 [3] [nM]	EC90 [3] [nM]	SI = CC50/EC50 [4]	balance between virus inhibition and cytotoxicity (selectivity index), in words [4]	CC50 at 2 days (in vitro [5]) [nM]	EC90 [6] [nM]	CC50 at 2 days [7] [nM]	EC50 [6] [nM]
CCC[C@@H](C=O)NC(=O)[C@H](CC(C)C)NC(=O)[C@H](CC(C)C)NC(=O)OCc1ccccc1 [Compound 2] (Cbz-Leu-Leu-[Nva]-aldehyde)	450	3.50	130	630	60	160	>33.3	best selectivity index	> 2000			
CC(C)C[C@@H](C=O)NC(=O)[C@H](CC(C)C)NC(=O)[C@H](CC(C)C)NC(=O)Cc1ccc(F)cc1F [Compound 8]					520	1280	>3.84	advantageous balance	> 2000			
CCC(CC)COC(=O)[C@H](C)N[P@](=O)(OC[C@H]1O[C@@](C#N)(c2ccc3c(N)ncnn23)[C@H](O)[C@@H]1O)Oc1ccccc1 [Rem, Remdesivir, reference compound]					2180	2450				1660		
CC(=O)N[C@@H](CC(C)C)C(=O)N[C@@H](CC(C)C)C(=O)N[C@H](C=O)CC(C)C [Compound 3] (Ac-Leu-Leu-Leu-aldehyde)					< 300	1570	>45.2	best selectivity index	13600			
CC(C)C[C@@H](C=O)NC(=O)[C@H](CC(C)C)NC(=O)[C@H](CC(C)C)NC(=O)c1cnccn1 [Compound 7]					680	1930	>2.94	advantageous balance			> 2000	
CC(C)C[C@@H](C=O)NC(=O)[C@H](Cc1ccccc1)NC(=O)[C@H](CC(C)C)NC(=O)OCc1ccccc1 [Compound 6] (Cbz-Leu-Phe-Leu-aldehyde)					310	11200	12.92	best selectivity index	1680	> 2000		140
CC(C)C[C@H](NC(=O)OCc1ccccc1)C(=O)N[C@@H](CC(C)C)C(=O)N[C@H](C=O)Cc1ccccc1 [Compound 5] (Cbz-Leu-Leu-Phe-aldehyde)	480	5.13	90	470	60	1930	>33.3	best selectivity index	> 2000	2300		1780
CC(C)C[C@H](NC(=O)[C@H](Cc1ccccc1)NC(=O)c1cnccn1)B(O)O [Compound 9, reference compound]					1050	21500	0.22	not favourable	230			
CC(C)C[C@@H](C=O)NC(=O)[C@H](CC(C)C)NC(=O)[C@H](CC(C)C)NC(=O)OCc1ccccc1 [Compound 1] (Cbz-Leu-Leu-Leu-aldehyde)	230	1.89	120	130	120	500 to 1000	22.8	advantageous balance	2790	3300		850
CC(C)C[C@@H](C=O)NC(=O)[C@H](CC(C)C)NC(=O)[C@H](Cc1ccccc1)NC(=O)OCc1ccccc1 [Compound 4] (Cbz-Phe-Leu-Leu-aldehyde)					130	600	49.69	best selectivity index	6460	> 2000		> 2000
